# Results: patent US20040097515A1, “Antimicrobial drug reduced in effect on heart” (priority 2001, published 2004)
# “Also recorded” adds a separate entry of the source.
# Assays:
# [1] = tested on: guinea pig right ventricular myocardium sample; test: APD prolonging effect, action potential of guinea pig right ventricular myocardium sample; assay type: cell-based; conditions: for relative strength of APD prolonging effect, Tukey test / APD prolonging effect (rate of change in APD90 with respect to the initial value), Average: after 60 minute-exposure; for relative strength of APD prolonging effect, Tukey test: statistically significant difference; for relative strength of APD prolonging effect: at each of the measured points; for myocardial action potential duration, effect of exposure: exposed for 10 minutes or more, paired t-test; for APD prolonging effect (rate of change in APD90 with respect to the initial value), Average: Dose 100 (μM)
# Protocol: Slc: Hartley male guinea pigs (body weight: 322 to 667 g each) were employed as subjects.
# Each of compound (I), compound (II), and gatifloxacin was dissolved in an aqueous 1% lactic acid solution, to thereby prepare a 10 mM solution. The resultant solution was employed as a drug solution.
# Measurement of action potential was performed as follows. Specifically, the heart was quickly removed from each of the guinea pigs, and in a nutrition solution (Krebs-Henseleit) aerated with 95% O2+5% CO2 at room temperature, the right ventricular free wall was dissected to thereby prepare a myocardium sample. By use of an injection needle and platinum bipolar electrodes for electric stimulation, the sample was horizontally fixed onto a silicon block within a 20 ml organ bath (maintained at 36.5±0.5° C.) perfused with the nutrition solution aerated with 95% O2+5% CO2. During the test, the sample was electrically stimulated at a frequency of 1 Hz by means of rectangular pulses (voltage: about 1.3 times the threshold at which contraction of the sample is initiated, duration: 1 msec) provided from an electrostimulator via the platinum bipolar electrodes. The action potential of the cells was measured via glass microelectrodes (electrode resistance: 5 to 30 MΩ) which were filled with a 3 M KCl solution and connected to an amplifier for microelectrodes, and the action potential was recorded and analyzed by use of a computer. After electrical stimulation of the sample was continued for one hour or more, the action potential was measured before administration of the drug solution, and 10, 20, 30, 40, 50, and 60 minutes after administration of the drug solution. At each point in time, the action potential was measured and recorded in triplicate, and the average of the measured potentials was taken as the value for that point in time.
# The drug solution (200 μL) was added to the 20 mL organ bath by use of a micropipette (final concentration of the drug solution in the bath: 100 μM). On the basis of the thus-measured action potential waveform, resting membrane potential (RMP), overshoot (OS), action potential amplitude (APA), action potential durations at 20%, 50%, and 90% repolarization (APD20, APD50, and APD90), and maximum rising velocity (Vmax) were obtained.
# In each of the groups, the paired t-test was performed on the initial value of APD90 and on the action potential measured at each of the aforementioned points in time. Also, time-course variance analysis was performed, and the action potential after the 60 minute-exposure of the sample to the drug solution was subjected to the Tukey test, to thereby perform comparison between the groups. The level of significance was set at 5%, two-sided.
# [2] = Japanese Journal of Chemotherapy, Volume 47, 1999; cited from earlier work
# [3] = Japanese Journal of Chemotherapy, Volume 47, 1999; cited from earlier work; remark: listed apart in the source
# E. Coli, NIHJ = test: Antimicrobial activity, standard method of Japanese Society of Chemotherapy; assay type: cell-based
# Protocol: (§1) The antimicrobial activity of the thus-obtained compound was measured by means of the standard method of Japanese Society of Chemotherapy.
# E. faecalis, 19433 = test: as above; assay type: cell-based
# Protocol: as §1
# P. aeruginosa, 32104 = test: as above; assay type: cell-based
# Protocol: as §1
# P. aeruginosa, 32121 = test: as above; assay type: cell-based
# Protocol: as §1
# P. vulgaris 08601 = test: as above; assay type: cell-based
# Protocol: as §1
# S. aureus, FDA 209-P = test: as above; assay type: cell-based
# Protocol: as §1
# S. epidermidis, 56500 = test: as above; assay type: cell-based
# Protocol: as §1
# S. marcescens, 101000 = test: as above; assay type: cell-based
# Protocol: as §1
# [4] = 100 μM, Time 10 (minutes after administration)
# [5] = 100 μM, Time 20 (minutes after administration)
# [6] = 100 μM, Time 30 (minutes after administration)
# [7] = 100 μM, Time 40 (minutes after administration)
# [8] = 100 μM, Time 50 (minutes after administration)
# [9] = 100 μM, Time 60 (minutes after administration)
# [10] = Time 0, initial value before administration of the drug solution
Compound,"myocardial action potential duration (APD90), Average [1, 4]","myocardial action potential duration (APD90), Average [1, 5]","myocardial action potential duration (APD90), Average [1, 6]","myocardial action potential duration (APD90), Average [1, 7]","myocardial action potential duration (APD90), Average [1, 8]","myocardial action potential duration (APD90), Average [1, 9]","relative strength of APD prolonging effect, Tukey test ([1]; 100 μM)",relative strength of APD prolonging effect ([1]; 100 μM),"myocardial action potential duration, effect of exposure ([1]; 100 μM)","APD prolonging effect (rate of change in APD90 with respect to the initial value), Average [1]","myocardial action potential duration (APD90), Average [1, 10]","antimicrobial activity, difference between the antipodes [2]","pharmacokinetic action in the body, difference between the antipodes [3]",further results
COc1c(N2CCNC(C)C2)c(F)cc2c(=O)c(C(=O)O)cn(C3CC3)c12 (stereo not shown) [Gatifloxacin],180.6120,184.9200,192.2467,190.8950,201.5533,196.4925,compound (II)>gatifloxacin>compound (I),compound (II)>gatifloxacin>compound (I),significantly prolonged,13.7789,174.8600,,,
"COc1c(N2CCN[C@H](C)C2)c(F)cc2c(=O)c(C(=O)O)cn(C3CC3)c12 [Compound (II), 1-Cyclopropyl-6-fluoro-1,4-dihydro-8-methoxy-7-{3-(R)-methylpiperazin-1-yl}-4-oxoquinoline-3-carboxylic acid]",185.9917,191.9500,194.2750,205.5900,203.1350,206.9400,compound (II)>gatifloxacin>compound (I),compound (II)>gatifloxacin>compound (I),significantly prolonged,17.1760,176.1567,no great difference,no great difference,
"COc1c(N2CCN[C@@H](C)C2)c(F)cc2c(=O)c(C(=O)O)cn(C3CC3)c12 [Compound (I), 1-Cyclopropyl-6-fluoro-1,4-dihydro-8-methoxy-7-{3-(S)-methylpiperazin-1-yl}-4-oxoquinoline-3-carboxylic acid]",175.7500,180.2217,184.2600,190.6275,192.0675,193.5025,compound (II)>gatifloxacin>compound (I),compound (II)>gatifloxacin>compound (I),significantly prolonged,11.2206,170.3200,no great difference,no great difference,"strength of APD prolonging effect compared with gatifloxacin and the antipode ([1]; 100 μM): significantly lower APD prolonging effect; also recorded: lower than that of the prolonging effect of gatifloxacin or compound (II); antimicrobial activity (E. Coli, NIHJ): ≦0.003; antimicrobial activity (E. faecalis, 19433): 0.39; antimicrobial activity (P. aeruginosa, 32104): 0.20; antimicrobial activity (P. aeruginosa, 32121): 0.10; antimicrobial activity (P. vulgaris 08601): 0.006; antimicrobial activity (S. aureus, FDA 209-P): 0.05; antimicrobial activity (S. epidermidis, 56500): 0.20; antimicrobial activity (S. marcescens, 101000): 0.10"
